According to paper PMC6277767, “Broad and Region-Specific Impacts of the Synthetic Cannabinoid CP 55,940 in Adolescent and Adult Female Mouse Brains” (Frontiers in Molecular Neuroscience, 2018):

Test: CP 55,940 levels in eight brain regions 2 h after single i.p. 3 mg/kg injection (HPLC/MS/MS)
Type: in vivo, mouse
Conditions: for CP 55,940 Direction (relative to Veh) / CP 55,940 Magnitude (x Veh level): p .000
Description: The Bloomington Institutional Animal Care and Use Committee of Indiana University reviewed and approved the animal procedures. Female mice from the CD1 strain were utilized to match our study examining THC’s effects on the brain lipidome ([Leishman et al., 2018]). Mice were given a single i.p. injection of either 3 mg/kg CP or 1:1:18 cremophor:ethanol:saline vehicle (please refer to the section “3 mg/kg CP Is Relevant for Synthetic Cannabinoid Abuse and Has Stronger Effects on the Female Mouse Brain Lipidome During Adolescence” for a justification of dose and use of female mice). Three different age groups were given injections: PND 35 and PND 50 adolescents, and adult mice (PND 113). At least eight mice in each age group received CP and at least eight received vehicle. Matching the THC study time course ([Leishman et al., 2018]), mice were sacrificed via rapid decapitation 2 h after injection. Brains were immediately removed and flash-frozen in liquid nitrogen, and then stored at -80°C until dissections were performed. Brains were dissected on an ice-cold dissection plate into the following regions: STR, HIPP, CER, THAL, CTX, HYP, MID, and STEM. These abbreviations for these brain areas will be used exclusively when discussing the results generated by these specific dissections. Each dissected area was immediately placed in liquid nitrogen and then stored at -80°C until used for lipid extraction.
Tissue extracts were performed as previously described ([Bradshaw et al., 2006]; [Stuart et al., 2013]; [Raboune et al., 2014]; [Leishman et al., 2016a],[b], [2017], [2018]). First, samples were shock frozen in liquid nitrogen, weighed, and transferred to a centrifuge tube. The mass of the largest sample was multiplied by 50 to determine how many milliliters of HPLC-grade methanol (Fisher, Fair Lawn, NJ, United States) to add. Then, samples were spiked with 500 pmol deuterium-labeled NAGly (d8NAGly; Cayman Chemical, Ann Arbor, MI, United States). Samples were placed on ice in darkness for 2 h then individually homogenized and centrifuged at 19,000 × g for 20 min at 20°C. Supernatants were diluted with HPLC water (purified in house) to make a solution of 75% water, 25% supernatant. Lipids were partially purified on C18 solid phase extraction columns (Agilent, Palo Alto, CA, United States). A series of four elutions with 1.5 mL of 60%, 75%, 85%, and 100% methanol were collected ([Stuart et al., 2013]; [Leishman et al., 2016a],[b], [2018]).
As previously described ([Bradshaw et al., 2006]; [Tan et al., 2006]; [Smoum et al., 2010]; [Stuart et al., 2013]; [Tortoriello et al., 2013]; [Raboune et al., 2014]; [Leishman et al., 2016a],[b], [2017], [2018]), samples were analyzed using an Applied Biosystems API 3000 triple quadrupole mass spectrometer with electrospray ionization (Foster City, CA, United States). Using an Agilent XDB-C18 reversed phase analytical column and optimized mobile phase gradients, 20 μL from each elution were chromatographed. Two Shimadzu 10ADvp pumps (Columbia, MD, United States) provided the pressure for gradient elution. Mobile phase A: 20% methanol, 80% water (v/v) and 1 mM ammonium acetate (Sigma, St. Louis, MO, United States). Mobile phase B: 100% methanol, 1 mM ammonium acetate. Every method run began with 0% mobile phase B, reached 100% mobile phase B flowing at 0.2 mL/min, and gradually returned to 0% mobile phase B.
This screening library will be referred to as the lipidome when discussing data from this study. HPLC/MS/MS data were analyzed using Analyst software (Applied Biosystems) ([Bradshaw et al., 2006]; [Tan et al., 2006]; [Stuart et al., 2013]; [Tortoriello et al., 2013]; [Raboune et al., 2014]; [Leishman et al., 2016a],[b], [2017], [2018]). Chromatograms (Supplementary Figure 3) were generated by determining the retention time of analytes from the analytical column with a [M-1] or [M+1] parent peak and a fragmentation peak corresponding to the programmed values. […]

[1] = adult brainstem, 3mg/kg CP 55,940
[2] = adult cortex, 3 mg/kg CP 55,940
[3] = adult hypothalamus, 3mg/kg CP 55,940
[4] = adult midbrain, 3mg/kg CP 55,940
[5] = brainstem, PND35, 3 mg/kg CP 55,940 vs Veh

Compound: CCCCCCC(C)(C)c1ccc([C@@H]2C[C@H](O)CC[C@H]2CCCO)c(O)c1 [CP 55,940]
- brain area with highest levels of CP (PND 35): CTX
- CP 55,940 level, Mean (PND 35, CER, 2 hours after acute 3 mg/kg injection): 7.2155E-011
- CP 55,940 level, Mean (PND 35, CTX, 2 hours after acute 3 mg/kg injection): 1.1107E-010
- CP 55,940 level, Mean (PND 35, HIPP, 2 hours after acute 3 mg/kg injection): 9.6303E-011
- CP 55,940 level, Mean (PND 35, HYP, 2 hours after acute 3 mg/kg injection): 5.3113E-011
- CP 55,940 level, Mean (PND 35, MID, 2 hours after acute 3 mg/kg injection): 7.9142E-011
- CP 55,940 level, Mean (PND 35, STEM, 2 hours after acute 3 mg/kg injection): 7.0414E-011
- CP 55,940 level, Mean (PND 35, STR, 2 hours after acute 3 mg/kg injection): 5.7413E-011
- CP 55,940 level, Mean (PND 35, THAL, 2 hours after acute 3 mg/kg injection): 8.8715E-011
- CP 55,940 level, Mean (PND 35, Total (all brain areas), 2 hours after acute 3 mg/kg injection): 7.8540E-011
- CP 55,940 level, Direction (relative to Veh) (PND 35 hypothalamus): ↑
- CP 55,940 level, Magnitude (x Veh level) (PND 35 hypothalamus): infinite
- CP 55,940 level: Magnitude (x Veh level) (PND 35 midbrain, 3mg/kg): infinite
- CP 55,940 level: Direction (rel to Veh) (PND 35 midbrain, 3mg/kg, one-way ANOVA): ↑
- CP 55,940 mean level (PND 35 striatum, 3 mg/kg i.p., 2 h): 5.74E-11 moles per gram
- brain area with highest levels of CP (PND 50): HIPP
- CP 55,940 level, Mean (PND 50, CER, 2 hours after acute 3 mg/kg injection): 7.5674E-011
- CP 55,940 level, Mean (PND 50, CTX, 2 hours after acute 3 mg/kg injection): 8.6116E-011
- CP 55,940 level, Mean (PND 50, HIPP, 2 hours after acute 3 mg/kg injection): 1.2297E-010
- CP 55,940 level, Mean (PND 50, HYP, 2 hours after acute 3 mg/kg injection): 4.3769E-011
- CP 55,940 level, Mean (PND 50, MID, 2 hours after acute 3 mg/kg injection): 1.2091E-010
- CP 55,940 level, Mean (PND 50, STEM, 2 hours after acute 3 mg/kg injection): 8.3747E-011
- CP 55,940 level, Mean (PND 50, STR, 2 hours after acute 3 mg/kg injection): 5.8704E-011
- CP 55,940 level, Mean (PND 50, THAL, 2 hours after acute 3 mg/kg injection): 9.9312E-011
- CP 55,940 level, Mean (PND 50, Total (all brain areas), 2 hours after acute 3 mg/kg injection): 8.6438E-011
- brain area with highest levels of CP (adult): CER
- CP 55,940 level, Direction (relative to Veh) [1]: ↑
- CP 55,940 level, Magnitude (x Veh level) [1]: infinite
- CP 55,940 level, Mean (adult cortex, 3mg/kg CP 55,940): 1.85E-10
- CP 55,940 Direction (relative to Veh) [2]: ↑
- CP 55,940 Magnitude (x Veh level) [2]: infinite
- CP 55,940 level, Mean (adult female mice, brainstem, 3mg/kg CP 55,940): 1.52E-10
- CP 55,940 level, Mean (adult hypothalamus, 3 mg/kg CP 55,940): 1.17E-10
- CP 55,940 Direction (relative to Veh) [3]: ↑
- CP 55,940 Magnitude (x Veh level) [3]: infinite
- CP 55,940 level, Mean [4]: 2.2E-10
- CP 55,940 Direction (relative to Veh) [4]: ↑
- CP 55,940 Magnitude (x Veh level) [4]: infinite
- CP 55,940 level, Mean (adult, CER, 2 hours after acute 3 mg/kg injection): 2.8002E-010
- CP 55,940 level, Mean (adult, CTX, 2 hours after acute 3 mg/kg injection): 1.8513E-010
- CP 55,940 level, Mean (adult, HIPP, 2 hours after acute 3 mg/kg injection): 2.6840E-010
- CP 55,940 level, Mean (adult, HYP, 2 hours after acute 3 mg/kg injection): 1.1726E-010
- CP 55,940 level, Mean (adult, MID, 2 hours after acute 3 mg/kg injection): 2.2043E-010
- CP 55,940 level, Mean (adult, STEM, 2 hours after acute 3 mg/kg injection): 1.5203E-010
- CP 55,940 level, Mean (adult, STR, 2 hours after acute 3 mg/kg injection): 2.0821E-010
- CP 55,940 level, Mean (adult, THAL, 2 hours after acute 3 mg/kg injection): 2.0002E-010
- CP 55,940 level, Mean (adult, Total (all brain areas), 2 hours after acute 3 mg/kg injection): 2.0394E-010
- brain area with lowest levels of CP (all three age groups): HYP
- variation of CP levels among the eight brain regions (all three age groups): twofold to threefold
- CP 55,940 level, Direction (relative to Veh) [5]: ↑
- CP 55,940 level, Magnitude (x Veh level) [5]: infinite
- CP 55,940 level (brainstem, PND35 female mice, 3mg/kg CP 55,940, mean): 7.04E-11
